According to patent US20110059947A1, “ALPHA 7 NICOTINIC AGONISTS AND ANTIPSYCHOTICS” (Targacept, Inc., priority 2008, published 2011):
Values joined by “and” are separate entries in the source; they are usually repeats but may differ in a detail not shown here. Equal values may be shown once.

How the values were obtained:
[1] = system: non-nicotinic receptor classes; test: Broad receptor selectivity battery (Novascreen); settings: criterion: inhibition of receptor-selective ligand binding >50% at 10 μM
5HT3 receptors [2] = target: T1, 5HT3 receptors (Mus musculus, UniProt P23979); test: 5HT3 receptor radioligand binding, mouse receptor; settings: 10 μM
T1 sequence (P23979 24-489): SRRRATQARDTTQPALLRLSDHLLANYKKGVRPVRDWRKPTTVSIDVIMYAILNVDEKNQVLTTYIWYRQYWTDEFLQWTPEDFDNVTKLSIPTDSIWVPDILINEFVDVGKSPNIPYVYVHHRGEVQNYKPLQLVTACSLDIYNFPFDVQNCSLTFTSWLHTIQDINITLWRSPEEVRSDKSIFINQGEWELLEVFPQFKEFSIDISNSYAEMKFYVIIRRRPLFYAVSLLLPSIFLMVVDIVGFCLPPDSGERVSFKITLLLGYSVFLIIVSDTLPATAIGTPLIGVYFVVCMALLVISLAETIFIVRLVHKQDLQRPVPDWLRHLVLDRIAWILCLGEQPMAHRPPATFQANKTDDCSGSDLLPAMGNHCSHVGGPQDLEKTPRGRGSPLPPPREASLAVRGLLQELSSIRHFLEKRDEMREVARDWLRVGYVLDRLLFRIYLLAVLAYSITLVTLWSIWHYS

Sprague-Dawley rats = test: Apomorphine-induced impairment of pre-pulse inhibition; type: in vivo, rat; settings: Compound A 0.3 mg/kg s.c., apomorphine 1.0 mg/kg s.c., p<0.001
human muscle receptors = target: T2, human muscle receptors (Homo sapiens, UniProt P02708+P07510+Q07001); test: Muscle function (Ca++ flux), TE-671 cells; type: cell-based; settings: human TE-671 cells, % of nicotine's Emax
T2 construct: expressed in appropriate rat and human cell lines; endogenous in cells

human α4β2 sub-type = target: T3, human α4β2 sub-type (Homo sapiens, UniProt P17787+P43681); test: Functional activation in Xenopus oocytes (electrophysiology); type: cell-based
T3 construct: expressed in transfected cells; host or cells: Xenopus oocytes

rats = test: Novel object recognition (NOR) in rats; type: in vivo, rat
Text: The object recognition model is based on a rodent's spontaneous tendency to explore novel aspects of their environment and this exploratory activity can be an index for memory function (Ennaceur and Delacour, 1988). The NOR test measures the capacity to recognize an object presented on two occasions, some time apart. The test arena consisted of a 17.5×17.5″ clear Plexiglas™ with walls 12″ in height. The arena was enclosed in an opaque, sound-attenuating chamber and the doors (opening to the front side) remained open. […] On the first two days of this sub-acute dosing paradigm, administrations were followed 30 minutes later by an exploratory (habituation) trial (6 minutes) on Day 1 (no objects) and object recognition acquisition trial (3 minutes) on Day 2 (2 of the same objects). On the third day the final OR trial, or recall trial (3 minutes; one familiar, one novel object) was started at either 30 min, 2 h, 6 h, 18 h or 24 h after compound administration. For the recall trial, a video camera was positioned approximately 36″ from the unshielded side of the arena for videotaping of the animals' behaviors. These behaviors were subsequently hand-scored by a blinded observer assessing the time spent exploring a novel (object B) versus a familiar (object A) object during this recall exposure trial. Absolute exploration time for each object was recorded, and a % recognition index was calculated as follows: % RI=[(time investigating novel object)/(total time investigating both novel+familiar objects)] […] Where significant overall effects were found, post-hoc analyses were performed. P<0.05 was considered significant.

human α4β2 receptors = target: T4, human α4β2 receptors (Homo sapiens, UniProt P17787+P43681); test: [3H]-(S)-nicotine competition binding in SH-EP1 cellular membranes; settings: SH-EP1 cells
T4 construct: expressed in transfected cells; host or cells: SH-EP1

5HT3 receptors [3] = target: T5, 5HT3 receptors (Homo sapiens, UniProt P46098); test: 5HT3 receptor radioligand binding, human receptor; settings: 10 μM
T5 sequence (P46098 24-478): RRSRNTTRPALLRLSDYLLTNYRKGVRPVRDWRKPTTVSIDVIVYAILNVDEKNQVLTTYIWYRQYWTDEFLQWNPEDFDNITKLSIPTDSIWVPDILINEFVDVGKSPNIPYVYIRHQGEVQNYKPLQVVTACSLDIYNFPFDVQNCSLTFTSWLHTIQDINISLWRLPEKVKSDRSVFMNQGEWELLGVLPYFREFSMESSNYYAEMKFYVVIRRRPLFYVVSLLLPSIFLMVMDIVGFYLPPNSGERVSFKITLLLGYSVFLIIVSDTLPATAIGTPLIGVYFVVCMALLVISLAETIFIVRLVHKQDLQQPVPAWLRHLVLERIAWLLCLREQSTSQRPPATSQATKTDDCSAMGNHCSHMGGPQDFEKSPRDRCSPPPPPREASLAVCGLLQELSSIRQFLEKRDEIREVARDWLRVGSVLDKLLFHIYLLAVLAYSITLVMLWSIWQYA

human ganglion receptors = test: Ganglion function (Ca++ flux), SH-SY5Y cells; type: cell-based; settings: % of nicotine's Emax
th(tk-)/th(tk-) mice = test: Prepulse inhibition (PPI) and acoustic startle in th(tk-)/th(tk-) and control mice; type: in vivo
5HT3 receptors [4] = target: T5, 5HT3 receptors; test: Functional activation at the human 5HT3 receptor; type: cell-based; settings: read-out: maximal response, functional activation of human 5HT3 receptor
rat ganglion receptors = test: Ganglion function (Ca++ flux), PC-12 Shooter cells; type: cell-based; settings: rat PC-12 Shooter cells, % of nicotine's Emax
opioid receptor = settings: read-out: Ki opioid site; dose-response assessment
sigma site 2 = target: T6, sigma site 2 (Homo sapiens, UniProt Q5BJF2); test: Sigma site 2 binding (Novascreen)
T6 construct: Novascreen

With `O=C(N[C@@H]1C2CCN(CC2)[C@H]1Cc1cccnc1)c1cc2ccccc2o1` [Compound A, (2S,3R)—N-(2-((3-pyridinyl)methyl)-1-azabicyclo[2.2.2]oct-3-yl)benzofuran-2-carboxamide] the “interactions with other non-nicotinic receptor classes” value [1] was “minimal interactions”, the “inhibition of radioligand binding at 5HT3, mouse receptor” value (5HT3 receptors [2]) was 59 % inhibition and the “PPI deficits induced by apomorphine” value (Sprague-Dawley rats) was “significantly reversed PPI deficits”. For the same compound, the “Muscle Function (Ca++ flux) % nicotine @ 10 uM” value (human muscle receptors; 10 uM) was 5 % nicotine and 5 ± 2 % nicotine, the “Muscle Function (Ca++ flux) % nicotine @ 100 uM” value (human muscle receptors; 100 uM) was 12 % nicotine and 12 ± 7 % nicotine and the “activation of human α4β2” value (human α4β2 sub-type) was “no detectable activation”. The “decreases in subsequent control responses to ACh (α4β2)” value (human α4β2 sub-type) was “no significant decreases”, the “time investigating novel versus familiar object” value (rats; rats, 0.3 mg/kg, 30 min, 2 h, 6 h and 18 h after final sub-acute (q.d. x3 days) administration) was “significantly more time investigating the novel object than the familiar object” and the “time spent investigating the novel object” value (rats; rats, 0.3, 1 and 10 mg/kg p.o., 30 minutes after 3rd q.d. administration) was “significantly increased the time spent investigating the novel object”. For the same compound, the “duration of working memory facilitation after third sub-acute daily administration” value (rats; young rats, 0.3 mg/kg) was “up to 18 hours”, the Ki (human α4β2 receptors) was 2800 nM and the “inhibition of radioligand binding at 5HT3, human receptor” value (5HT3 receptors [3]) was 25 % inhibition. The “Ganglion Function (Ca++ flux) % nicotine @ 10 uM” value (human ganglion receptors; 10 uM) was 6 % nicotine and 6 ± 2 % nicotine, the “Ganglion Function (Ca++ flux) % nicotine @ 100 uM” value (human ganglion receptors; 100 uM) was 11 % nicotine and 11 ± 1 % nicotine and the PPI or startle (th(tk-)/th(tk-) mice; Compound A 0.1 mg/kg given individually) was “little effect”. The PPI (th(tk-)/th(tk-) mice; control (wild type) mice, Compound A) was “no effect on control”, the startle response (th(tk-)/th(tk-) mice; th(tk-)/th(tk-) mice, Compound A) was “normalizes startle response” and the “deficits in PPI” value (th(tk-)/th(tk-) mice; th(tk-)/th(tk-) mice, Compound A (0.1 and 0.3 mg/kg analyzed)) was “reverse deficits in PPI”. For the same compound, the “PPI, main effect” value (th(tk-)/th(tk-) mice; transgenic th(tk-)/th(tk-) mice, Compound A 0.1 mg/kg alone) was “no significant main effect”, the Emax at 100 µM (5HT3 receptors [4]) was 15% and the “Ganglion Function (Ca++ flux) % nicotine @ 10 uM” value (rat ganglion receptors; 10 uM) was 11 % nicotine and 11 ± 6 % nicotine. For the same compound, the “Ganglion Function (Ca++ flux) % nicotine @ 100 uM” value (rat ganglion receptors; 100 uM) was 20 % nicotine and 20 ± 8 % nicotine, the Ki (opioid receptor) was 13 µM and the “inhibition of ligand binding, sigma site 2” value (sigma site 2; 10 μM) was 79 % inhibition. It also gave a Ki (sigma site 2; dose-response assessment) of 13 µM.
